Reference: PMC6726534 (Biotechnology and bioengineering, 2019)
≈ marks a conversion by molar mass, not a printed value. Where a SMILES comes first, the peptide text is derived from it.

Legend:
Type in all cases: cell-based
E. coli FVEC 638 = settings: FVEC 638, 1 h
E. coli JW0013 = settings: JW0013, 1 h
[1] = tested on: Salmonella enterica serovar Enteritidis MH91989; settings: serovar Enteritidis MH91989, 1 h
[2] = tested on: Salmonella enterica serovar Newport; settings: 1 h
E. coli FVEC 964 = settings: FVEC 964, 1 h
E. coli JJ2489 = settings: JJ2489, 1 h
E. coli J2210 = settings: J2210, 1 h
E. coli PUTI 379 = settings: PUTI 379, 1 h
[3] = tested on: Salmonella enterica serovar Tennessee; settings: 1 h
[4] = tested on: Salmonella Infantis #129 B; settings: 1 h
[5] = tested on: Salmonella enterica serovar Typhimurium ATCC SL1344; settings: ATCC SL1344, 1 h
[6] = tested on: A431 human epidermoid carcinoma cells; experiment: Cytotoxicity assay; settings: 10 μmol/L peptide, 24 h, MTT assay, duplicate, normalized to PBS
[7] = tested on: MDA-MB-231 human breast adenocarcinoma cells; experiment: Cytotoxicity assay; settings: 10 μmol/L peptide, 24 h, MTT assay, duplicate, normalized to PBS

SMILES	MIC (E. coli FVEC 638) [µmol/L]	MIC (E. coli JW0013) [µmol/L]	MIC [1] [µmol/L]	MIC [2] [µmol/L]	MIC (E. coli FVEC 964) [µmol/L]	MIC (E. coli JJ2489) [µmol/L]	MIC (E. coli J2210) [µmol/L]	MIC (E. coli PUTI 379) [µmol/L]	MIC [3] [µmol/L]	MIC [4] [µmol/L]	MIC [5] [µmol/L]	toxicity to A431 cells [6]	toxicity towards MDA-MB-231 [7]
CC(C)C[C@H](NC(=O)[C@H](CCCNC(=N)N)NC(=O)[C@@H]1CCCN1C(=O)[C@H](Cc1c[nH]cn1)NC(=O)[C@@H]1CCCN1C(=O)[C@@H]1CCCN1C(=O)[C@H](CCCNC(=N)N)NC(=O)[C@@H]1CCCN1C(=O)[C@H](CCC(N)=O)NC(=O)[C@@H]1CCCN1C(=O)[C@H](CCCCN)NC(=O)[C@H](Cc1ccc(O)cc1)NC(=O)[C@@H](NC(=O)[C@@H]1CCCN1C(=O)[C@H](CCCCN)NC(=O)[C@H](CC(N)=O)NC(=O)[C@H](CC(N)=O)NC(=O)CN)C(C)C)C(=O)O [Api_R4K/I8K] (H-GNNKPVYKPQPRPPHPRL-OH)	0.048 ± 0.011 (≈ 0.101 µg/mL)	0.012 ± 0.003 (≈ 0.0251 µg/mL)	0.031 ± 0.014 (≈ 0.065 µg/mL)	0.024 ± 0.006 (≈ 0.0503 µg/mL)	0.048 ± 0.011 (≈ 0.101 µg/mL)	0.031 ± 0.014 (≈ 0.065 µg/mL)	0.034 ± 0.017 (≈ 0.0712 µg/mL)	0.048 ± 0.011 (≈ 0.101 µg/mL)	0.024 ± 0.006 (≈ 0.0503 µg/mL)	0.024 ± 0.006 (≈ 0.0503 µg/mL)	0.034 ± 0.017 (≈ 0.0712 µg/mL)	–	–
CC(C)C[C@H](NC(=O)[C@H](CCCNC(=N)N)NC(=O)[C@@H]1CCCN1C(=O)[C@H](Cc1c[nH]cn1)NC(=O)[C@@H]1CCCN1C(=O)[C@@H]1CCCN1C(=O)[C@H](CCCNC(=N)N)NC(=O)[C@@H]1CCCN1C(=O)[C@H](CCC(N)=O)NC(=O)[C@@H]1CCCN1C(=O)[C@H](CCCNC(=N)N)NC(=O)[C@H](Cc1ccc(O)cc1)NC(=O)[C@@H](NC(=O)[C@@H]1CCCN1C(=O)[C@H](CCCCN)NC(=O)[C@H](CC(N)=O)NC(=O)[C@H](CC(N)=O)NC(=O)CN)C(C)C)C(=O)O [Api_R4K/I8R] (H-GNNKPVYRPQPRPPHPRL-OH)	0.048 ± 0.011 (≈ 0.102 µg/mL)	0.012 ± 0.003 (≈ 0.0255 µg/mL)	0.031 ± 0.014 (≈ 0.0658 µg/mL)	0.017 ± 0.009 (≈ 0.0361 µg/mL)	0.048 ± 0.011 (≈ 0.102 µg/mL)	0.034 ± 0.017 (≈ 0.0722 µg/mL)	0.034 ± 0.017 (≈ 0.0722 µg/mL)	0.048 ± 0.011 (≈ 0.102 µg/mL)	0.024 ± 0.006 (≈ 0.051 µg/mL)	0.024 ± 0.006 (≈ 0.051 µg/mL)	0.034 ± 0.017 (≈ 0.0722 µg/mL)	–	–
CC[C@H](C)[C@H](NC(=O)[C@H](Cc1ccc(O)cc1)NC(=O)[C@@H](NC(=O)[C@@H]1CCCN1C(=O)[C@H](CCCNC(=N)N)NC(=O)[C@H](CC(N)=O)NC(=O)[C@H](CC(N)=O)NC(=O)CN)C(C)C)C(=O)N1CCC[C@H]1C(=O)N[C@@H](CCC(N)=O)C(=O)N1CCC[C@H]1C(=O)N[C@@H](CCCNC(=N)N)C(=O)N1CCC[C@H]1C(=O)N1CCC[C@H]1C(=O)N[C@@H](Cc1c[nH]cn1)C(=O)N1CCC[C@H]1C(=O)N[C@@H](CCCNC(=N)N)C(=O)N[C@@H](CC(C)C)C(=O)O [Api_WT, reference compound] (H-GNNRPVYIPQPRPPHPRL-OH)	0.048 ± 0.011 (≈ 0.101 µg/mL)	0.024 ± 0.006 (≈ 0.0506 µg/mL)	0.048 ± 0.011 (≈ 0.101 µg/mL)	0.031 ± 0.014 (≈ 0.0654 µg/mL)	0.048 ± 0.011 (≈ 0.101 µg/mL)	0.031 ± 0.014 (≈ 0.0654 µg/mL)	0.048 ± 0.011 (≈ 0.101 µg/mL)	0.048 ± 0.011 (≈ 0.101 µg/mL)	0.048 ± 0.011 (≈ 0.101 µg/mL)	0.048 ± 0.011 (≈ 0.101 µg/mL)	0.048 ± 0.011 (≈ 0.101 µg/mL)	–	–
CC[C@H](C)[C@H](NC(=O)[C@@H]1CCCN1C(=O)[C@H](CCCCN)NC(=O)[C@@H]1CCCN1C(=O)[C@@H]1CCCN1C(=O)[C@@H](NC(=O)[C@@H]1CCCN1C(=O)[C@H](CCCNC(=N)N)NC(=O)[C@@H]1CCCN1C(=O)[C@H](CCCNC(=N)N)NC(=O)[C@H](Cc1ccc(O)cc1)NC(=O)[C@H](CO)NC(=O)CNC(=O)[C@H](CCCCN)NC(=O)[C@H](CC(=O)O)NC(=O)[C@@H](N)C(C)C)[C@@H](C)O)C(=O)N[C@@H](Cc1ccc(O)cc1)C(=O)N[C@@H](CC(N)=O)C(=O)N[C@@H](CCCNC(=N)N)C(=O)N[C@@H](CC(N)=O)C(=O)O [Pyr_L7R/R14K] (H-VDKGSYRPRPTPPKPIYNRN-OH)	–	–	–	–	–	–	–	–	–	–	–	no toxicity	None of these PrAMPs exhibited any toxicity
CC[C@H](C)[C@H](NC(=O)[C@@H]1CCCN1C(=O)[C@H](CCCNC(=N)N)NC(=O)[C@@H]1CCCN1C(=O)[C@@H]1CCCN1C(=O)[C@@H](NC(=O)[C@@H]1CCCN1C(=O)[C@H](CCCNC(=N)N)NC(=O)[C@@H]1CCCN1C(=O)[C@H](CC(C)C)NC(=O)[C@H](Cc1ccc(O)cc1)NC(=O)[C@H](CO)NC(=O)CNC(=O)[C@H](CCCCN)NC(=O)[C@H](CC(=O)O)NC(=O)[C@@H](N)C(C)C)[C@@H](C)O)C(=O)N[C@@H](Cc1ccc(O)cc1)C(=O)N[C@@H](CC(N)=O)C(=O)N[C@@H](CCCNC(=N)N)C(=O)N[C@@H](CC(N)=O)C(=O)O [Pyr_WT, reference compound] (H-VDKGSYLPRPTPPRPIYNRN-OH)	–	–	–	–	–	–	–	–	–	–	–	no toxicity	None of these PrAMPs exhibited any toxicity
